Experiment [1] is described as follows: Inhibition of HIV1 reverse transcriptase Y181C mutant by SPA assay.
Experiment [2] in a line: Inhibition of HIV1 reverse transcriptase by SPA assay.

One may read the IC50 as the concentration that gives 50% inhibition. Read a high IC50 as weaker potency. Turning to `Cc1ccc2c(c1)CCCN2C(=O)SCC(=O)Nc1ccc(S(N)(=O)=O)cc1Cl`, inhibition in experiment [1] was half-maximal at 1300 nM (IC50). That is a single-digit micromolar value. In the case of `NS(=O)(=O)c1ccc(NC(=O)CCC(=O)N2CCCc3cc(Cl)cc(Cl)c32)c(Cl)c1`, in experiment [2], 194 nM corresponded to half-maximal inhibition (IC50). Take `N#Cc1ccc(NC(=O)CSC(=O)N2CCCc3cc(Cl)cc(Cl)c32)c(Cl)c1`: the IC50 was determined as 7 nM in experiment [2] and 95 nM in experiment [1].

As to `NS(=O)(=O)c1ccc(NC(=O)CSC(=O)N2CCCc3cccc(Cl)c32)c(Cl)c1`, the values for the IC50 in experiment [2] and in experiment [1] were 2 nM and 31 nM, respectively. In the same order, the values of `NS(=O)(=O)c1ccc(NC(=O)COC(=O)N2CCCc3cc(Cl)cc(Cl)c32)c(Cl)c1` are 19 nM and 116 nM. In the same order, the values of `Cc1cc(C)c(N(C)C(=O)SCC(=O)Nc2ccc(S(N)(=O)=O)cc2Cl)c(C)c1` are 8 nM and 80 nM.

In the case of `NCCCNC(=O)c1ccc(NC(=O)CSC(=O)N2CCCc3cc(Cl)cc(Cl)c32)c(Cl)c1`, the figures for the half-inhibitory concentration (IC50) in experiment [2] and in experiment [1] were 2 nM and 7 nM, respectively. For the molecule `Cc1cccc2c1N(C(=O)SCC(=O)Nc1ccc(S(N)(=O)=O)cc1Cl)CCC2`, the figures for the IC50 in experiment [2] and in experiment [1] were 6 nM and 61 nM, respectively. As for `O=C(CSC(=O)N1CCCc2cc(Cl)cc(Cl)c21)Nc1ccc(C(=O)NCc2ccccc2)cc1Cl`, the half-maximal inhibitory concentration (IC50) was found to be 2 nM in experiment [2] and 4 nM in experiment [1].

Consider `CS(=O)(=O)c1ccc(NC(=O)CSC(=O)N2CCCc3cc(Cl)cc(Cl)c32)c(Cl)c1`, for which the 50% inhibitory concentration (IC50) in experiment [2] came out at 4 nM; in experiment [1], 11 nM. For the molecule `NS(=O)(=O)c1ccc(NC(=O)CNC(=O)N2CCCc3cc(Cl)cc(Cl)c32)c(Cl)c1`, half-maximal inhibition in experiment [2] (IC50) was put at 336 nM. As to `O=C(CSC(=O)N1CCCc2cc(Cl)cc(Cl)c21)Nc1ccccc1Cl`, the half-inhibitory concentration (IC50) in experiment [2] is 4 nM; in experiment [1], 175 nM. `NS(=O)(=O)c1ccc(NC(=O)CSC(=O)N2CCCc3cc(Cl)ccc32)c(Cl)c1`: in experiment [2], the IC50 came out at 8 nM.

Regarding `NS(=O)(=O)c1ccc(NC(=O)CSC(=O)N2CCCc3cc(Cl)cc(Cl)c32)c(Cl)c1`, half-maximal inhibition in experiment [1] (IC50) required 4 nM.

The values are drawn from BindingDB's records for doi:10.1016/j.bmcl.2009.07.031 (Merck Research Laboratory, 2009).
